Experimental data reported in patent US20100249083A1, “16,17-CARBOCYCLIC CONDENSED STEROID COMPOUNDS HAVING SELECTIVE ESTROGENIC ACTIVITY” (N.V. Organon, priority 2000, published 2010).

Legend:
[1] = biological target: T1, human estrogen receptor β (hERβ) (Homo sapiens, UniProt Q92731); test: Estrogenic agonistic transactivation assay, CHO cells with rat oxytocin promoter and luciferase reporter; type: cell-based; set-up: expressed in transfected cells; host or cells: CHO cells with rat oxytocin promoter and luciferase reporter; details: compared with estradiol; second value of Erα/Erβ pair
T1 sequence (Q92731 whole entry): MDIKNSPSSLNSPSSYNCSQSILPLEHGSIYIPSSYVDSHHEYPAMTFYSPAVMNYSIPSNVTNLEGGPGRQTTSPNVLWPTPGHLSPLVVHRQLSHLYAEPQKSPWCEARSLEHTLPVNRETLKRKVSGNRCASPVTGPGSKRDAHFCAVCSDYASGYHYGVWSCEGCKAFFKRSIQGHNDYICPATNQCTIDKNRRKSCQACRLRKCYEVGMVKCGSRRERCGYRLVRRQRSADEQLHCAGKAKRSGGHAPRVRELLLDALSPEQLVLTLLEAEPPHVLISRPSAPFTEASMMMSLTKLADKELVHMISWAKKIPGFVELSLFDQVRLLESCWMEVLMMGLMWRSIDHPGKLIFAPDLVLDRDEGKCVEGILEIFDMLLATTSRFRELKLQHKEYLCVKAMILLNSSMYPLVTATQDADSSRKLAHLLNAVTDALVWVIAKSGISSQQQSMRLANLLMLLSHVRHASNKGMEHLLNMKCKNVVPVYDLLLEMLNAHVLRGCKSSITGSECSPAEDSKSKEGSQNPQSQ
Excerpt: (§1) The estrogenic agonistic transactivation (potency ratio) of a test compound to stimulate the transactivation of the enzyme luciferase mediated via the estrogen receptors hERα or hERβ is compared with the standard estrogen estradiol. The antiestrogenic activity (potency ratio) of a test compound to inhibit the transactivation of the enzyme luciferase mediated via the estrogen receptors hERα or hERβ by the (17β)-estradiol is compared with the standard ICI 164.384 (=(7α,17β)-N-butyl-3,17-dihydroxy-N-methylestra-1,3,5(10)-triene-7-undecanamide).

[2] = biological target: T2, human estrogen receptor α (hERα) (Homo sapiens, UniProt P03372); test: as above; type: cell-based; set-up: expressed in transfected cells; host or cells: CHO cells with rat oxytocin promoter and luciferase reporter; details: compared with estradiol; first value of Erα/Erβ pair
T2 sequence (P03372 1-595): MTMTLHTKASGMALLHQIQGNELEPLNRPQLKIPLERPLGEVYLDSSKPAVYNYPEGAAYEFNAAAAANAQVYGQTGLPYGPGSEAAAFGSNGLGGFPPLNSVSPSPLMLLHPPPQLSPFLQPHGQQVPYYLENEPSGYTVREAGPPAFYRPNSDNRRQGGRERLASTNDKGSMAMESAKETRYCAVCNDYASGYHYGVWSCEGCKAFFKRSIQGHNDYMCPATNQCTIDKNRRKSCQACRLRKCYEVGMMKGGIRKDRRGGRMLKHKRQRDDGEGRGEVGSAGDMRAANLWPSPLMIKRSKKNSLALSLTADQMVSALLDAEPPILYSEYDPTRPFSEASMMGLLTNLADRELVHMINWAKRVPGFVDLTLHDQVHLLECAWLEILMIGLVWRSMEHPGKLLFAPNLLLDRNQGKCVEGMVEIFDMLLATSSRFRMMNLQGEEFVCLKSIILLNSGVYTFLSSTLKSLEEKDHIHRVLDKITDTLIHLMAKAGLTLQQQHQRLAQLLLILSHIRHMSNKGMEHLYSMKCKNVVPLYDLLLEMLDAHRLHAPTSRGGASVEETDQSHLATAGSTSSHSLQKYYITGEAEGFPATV
Excerpt: as §1

[3] = biological target: T1, human estrogen receptor β (hERβ); details: compared with (17β)-estradiol; second value of Erα/Erβ pair
Description: (§2) Compounds are tested for their estrogen receptor activity in a binding assay and in a transactivation assay using the human estrogen receptor α or β.
(§3) Competitive binding to cytoplasmic human estrogen receptor α or β from recombinant Chinese hamster ovary (CHO) cells is used to estimate the relative binding affinity (═RBA) potency ratio) of a test compound as compared with (17β)-estradiol (E2) for estrogen receptors α or β present in the cytosol of recombinant CHO cells, stably transfected with the human estrogen receptor α (hERα) or β receptor (hERβ).

[4] = Allen Doisy test for estrogenic activity in vivo
Description: In vivo estrogenic activity was determined by means of the Allen Doisy test, described in F. Allen, L. A. Doisy, J. Amer. Med. Assoc., 81, 819-821 (1923)

[5] = tested on: ovariectomised (OVX) rats; test: Test for prevention of ovariectomy-induced bone loss in rats (anti-osteoporosis test); type: in vivo, rat; details: oral, 4 weeks, trabecular bone mineral density difference 40-60%
Excerpt: Ovariectomy of rats induces bone loss, which is due to estrogen deficiency. Administration of estrogenic compounds prevents this effect. The test is used to evaluate a compound for anti-osteoporotic activity in ovariectomised (OVX) rats. The effect on bone mass can be evaluated by peripheral Quantitative Computed Tomography (pQCT), or by quantitative analysis of X-ray pictures. Plasma osteocalcin and urinary deoxypyridinoline, calcium and phosphate gives information on bone metabolism. Increase of uterine weight and decrease of body and thymus weight reflect estrogenic effect.
Mature virgin 225-250 g female Wistar rats. Strain: Hsd/Cpd:Wu, SPF-bred by Harlan, CPB, Zeist, The Netherlands.
On day 1 of the experiment the rats are weighed and distributed over the cages in order of bodyweight, whereby the rat with the smallest bodyweight is placed in the first cage and the heaviest rat in the final cage. Treatments are randomised over the rats.
Sham-operation and ovariectomy are performed under ether anaesthesia. After recovery from the anaesthesia, within 24 h, vehicle, reference compound or test compound is administered once or twice daily for 4 weeks. […] Trabecular bone mineral density of the metaphyseal part of the femur (FBMDDIS mg/cm^3) is measured with a pQCT (peripheral Quantitative Computed Tomography machine; XCT 960A, Stratec, Birkenfeld, Germany). […]

[6] = biological target: T2, human estrogen receptor α (hERα); details: compared with (17β)-estradiol; first value of Erα/Erβ pair
Description: as §2, §3

Transactivation Erβ (agonist potency ratio) [1] | Transactivation Erα (agonist potency ratio) [2] | Binding-assay Erβ (relative binding affinity, potency ratio) [3] | Binding-assay Erα (relative binding affinity, potency ratio) [6] | Compound | Allen Doisy test, active dose ([4]; oral) [mg/kg] | Allen Doisy test, active dose ([4]; sc) [mg/kg] | Osteoporosis test, minimal active dose (MAD) [5] [mg/kg]
< 0.1 | 0.3 | 7 | 15 | CCCC1Cc2cc(O)ccc2C2CCC3(C)C(CC4CCCCC43O)C12 (stereo not drawn) [(7α,16β,17α)-7-propyl-16,24-cyclo-19,21-dinorchola-1,3,5(10)-triene-3,17-diol] | 0.125 | 0.024 | 0.19
– | – | – | – | CCC[C@@H]1Cc2cc(O)ccc2C2CC[C@@]3(C)C(C[C@H]4CC[C@H](O)C[C@]43O)C21 (stereo partly drawn) [E, (7α,16β,17 α,22S)-7-propyl-16,24-cyclo-19,21-dinorchola-1,3,5(10)-triene-3,17,22-triol] | 0.03 | 0.005 | 0.03
